Experimental data published in publication PMC4085797, “Synthetic Inositol Phosphate Analogs Reveal that PPIP5K2 Has a Surface-Mounted Substrate Capture Site that Is a Target for Drug Discovery” (Chemistry & Biology, 2014).
Residue numbers refer to the chain shown, from its start. “Also recorded” adds a separate entry of the source.

Legend:
[1] = molecular target: T1, PPIP5K2^KD (kinase domain of human PPIP5K2) (Homo sapiens, UniProt O43314); assay: ATPase activity of PPIP5K2KD (Pi release); format: biochemical; conditions: for stimulation of ATPase activity (in words): wild-type enzyme; for EC50: dose-response, key of Figure 4A, n = 3, read-out: EC50, stimulation of ATPase activities
T1 construct: The kinase domain of human PPIP5K2 (PPIP5K2^KD; residues 1–366); made in house
T1 sequence (O43314 1-366): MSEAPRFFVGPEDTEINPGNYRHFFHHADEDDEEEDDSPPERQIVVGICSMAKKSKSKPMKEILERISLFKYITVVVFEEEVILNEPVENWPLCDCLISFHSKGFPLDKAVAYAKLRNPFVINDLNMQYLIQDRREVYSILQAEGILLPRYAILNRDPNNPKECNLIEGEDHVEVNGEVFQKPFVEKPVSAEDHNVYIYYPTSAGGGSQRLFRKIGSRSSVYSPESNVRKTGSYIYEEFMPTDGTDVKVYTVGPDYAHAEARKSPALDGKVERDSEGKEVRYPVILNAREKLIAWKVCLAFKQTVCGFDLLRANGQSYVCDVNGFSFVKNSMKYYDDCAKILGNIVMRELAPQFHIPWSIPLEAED
Experimental: (§1) The initial InsP6 concentration was either 500 nM, 70 nM, or 40 nM. Various concentrations of 2,5-di-O-Bn-InsP4 were present as indicated. Radioactivity was assessed using an in-line Flo1 detector. The ADP-driven dephosphorylation of 100 nM 1,5-[PP]2-InsP4 by PPIP5K2^KD was usually determined by a luminescence-based assay of ATP accumulation ([Riley et al., 2012; Weaver et al., 2013]). The IC50 values were determined using GraphPad Prism v6.02 (n ≥ 3). In some experiments, 1,5-[PP]2-[^3H]InsP4 dephosphorylation by PPIP5K2^KD was assayed in 50 μl buffer containing 50 mM KCl, 20 mM HEPES pH 7.0, 7 mM MgSO4, 5 mM ADP, 1 mM EDTA. Reactions were then quenched, neutralized, and analyzed with HPLC using a Partisphere SAX column ([Weaver et al., 2013]); 1 ml fractions were collected for liquid scintillation spectrometry. The ATPase activity of PPIP5K2^KD (10–270 μg/ml) was assayed from Pi release following incubation at 37°C for 120–180 min in 20 μl reaction mixtures containing 20 mM Tris/HCl, pH 7.5, 10 mM ATP, 100 mM KCl, 0.1 mM EDTA, and 13 mM MgCl2.

[2] = molecular target: T1, PPIP5K2^KD (kinase domain of human PPIP5K2); assay: Reverse-kinase assay: ADP-driven dephosphorylation of 1,5-[PP]2-InsP4, luminescence-based assay of ATP accumulation; format: biochemical; conditions: for inhibition of [PP]2-InsP4 metabolism (in words): 100 nM 1,5-[PP]2-InsP4, Figure 4B; for IC50: 100 nM [PP]2-InsP4, key of Figure 4B, n = 3, read-out: IC50, inhibition of ADP-driven dephosphorylation of [PP]2-InsP4
Experimental: The six compounds that were selected for the dose-response curves in the assays of ATP hydrolysis (Figure 4A) were now investigated for their effects upon diphosphoinositol polyphosphate metabolism by PPIP5K2^KD (Figure 4B). We used a high-throughput reverse-kinase assay that records ATP generated from ADP during the dephosphorylation of 100 nM 1,5-[PP]2-InsP4 ([Riley et al., 2012; Weaver et al., 2013]). Each of the tested analogs inhibited [PP]2-InsP4 metabolism by PPIP5K2^KD (Figure 4B). […] However, the inhibition by 2,5-di-O-Bn-InsP4 (10) was more unexpected because due to its bulk, and its less negative charge compared to physiological substrates, we predict it to be a poor ligand for the active site of the highly specific PPIP5K2^KD ([Wang et al., 2012]). Nevertheless, its ability to inhibit reverse-kinase activity was directly confirmed by high-performance liquid chromatography (HPLC) analysis of [PP]2-[^3H]InsP4 dephosphorylation (Figures S1A–S1C available online).
as §1

[3] = molecular target: T1, PPIP5K2^KD (kinase domain of human PPIP5K2); parameters: method as in Weaver et al., 2013; conditions: 25 μM; ref Weaver et al., 2013; cited from earlier work
PPIP5K2^KD E192G mutant = molecular target: T2, PPIP5K2^KD E192G mutant (Homo sapiens, UniProt O43314, E192G); assay: ATPase activity of E192G mutant; format: biochemical
T2 construct: The kinase domain of human PPIP5K2 (PPIP5K2^KD; residues 1–366); made in house
T2 sequence (O43314 1-366 E192G): T1 sequence (O43314 1-366) with E192G
Experimental: as §1
Protein Expression, Purification, Crystallization and Structure Determination […]
(§2) The structure was further manually rebuilt with COOT and refined with PHENIX and
(§3) REFMAC from the CCP4 package. Ligand topology and parameter files were prepared using
(§4) the PRODRG server. The molecular graphics representations were prepared with the program
(§5) PyMol (Schrödinger, LLC). The 2D ligand-protein interaction diagrams were generated by
(§6) LigPlot+. Atomic coordinates and structure factors have been deposited with the Protein Data
(§7) Bank with accession codes: 4NZM, 4NZN, 4NZO.
(§8) Mutants were generated using a site-directed mutagenesis kit (Stratagene). Pairs of complementary
primers were designed as shown below, with mutagenic primers underlined (only 5’ primers are
All mutated constructs were sequenced. Mutant proteins were expressed and purified as for wild-

PPIP5K2^KD E192Q mutant = molecular target: T3, PPIP5K2^KD E192Q mutant (Homo sapiens, UniProt O43314, E192Q); assay: ATPase activity of E192Q mutant; format: biochemical; conditions: 25 μM, Figure 7E
T3 construct: The kinase domain of human PPIP5K2 (PPIP5K2^KD; residues 1–366); made in house
T3 sequence (O43314 1-366 E192Q): T1 sequence (O43314 1-366) with E192Q
Experimental: as §1
Protein Expression, Purification, Crystallization and Structure Determination
Full-length human IP6K2, the kinase domain of human PPIP5K2 (PPIP5K2KD; residues 1-
366), and the N-terminally truncated domain used for the crystallography studies (residues
41-366) were all sub-cloned, expressed and purified as before (Wang et al., 2012; Weaver et
al., 2013). […]
as §2, §3, §4, §5, §6, §7, §8
primers were designed as shown below, with mutagenic primers underlined (only 5’ primers are […]

| SMILES | stimulation of ATPase activity (in words) ([1]; 25 μM, Figure 2) | EC50 [1] [µM] | IC50 [2] [µM] | other results |
| --- | --- | --- | --- | --- |
| NCCO[C@H]1[C@@H](OP(=O)(O)O)[C@H](OP(=O)(O)O)[C@@H](OP(=O)(O)O)[C@H](OP(=O)(O)O)[C@H]1OP(=O)(O)O [compound 6, 2-O-(2-aminoethyl)-InsP5] | did not stimulate ATPase activity |  |  |  |
| O=C(CP(=O)(O)O)O[C@@H]1[C@@H](OP(=O)(O)O)[C@H](OP(=O)(O)O)[C@H](OP(=O)(O)O)[C@H](OP(=O)(O)O)[C@H]1OP(=O)(O)O [compound 1, 5-O-α-phosphonoacetyl-myo-inositol 1,2,3,4,6-pentakisphosphate] |  | 1.2 | 0.14 | stimulation of ATP hydrolysis ([1]; 25 μM analog): 5 fold; inhibition of [PP]2-InsP4 metabolism (in words) [2]: most potent inhibitor |
| O=C(CP(=O)(O)O)O[C@@H]1[C@@H](OP(=O)(O)O)[C@H](OP(=O)(O)O)[C@H](O)[C@H](OP(=O)(O)O)[C@H]1OP(=O)(O)O [compound 3, 5-PA-InsP4] | dramatically reduced |  |  |  |
| O=P(O)(O)O[C@@H]1[C@@H](OP(=O)(O)OP(=O)(O)O)[C@H](OP(=O)(O)O)[C@@H](OP(=O)(O)O)[C@@H](O)[C@H]1OP(=O)(O)O [compound 9, 5-PP-InsP4] | about half the rate shown by 2-O-Bn-5-PP-InsP4 (8) | 8.8 | 2.4 |  |
| O=C(O[C@H]1[C@@H](OP(=O)(O)O)[C@H](OP(=O)(O)O)[C@@H](OP(=O)(O)O)[C@H](OP(=O)(O)O)[C@H]1OP(=O)(O)O)c1ccccc1 [compound 4, 2-O-benzoyl-InsP5] | only a minimal reduction in ATPase-stimulating activity |  |  |  |
| O=P(O)(O)O[C@@H]1[C@@H](OP(=O)(O)O)[C@H](OP(=O)(O)O)[C@H](O)[C@H](OP(=O)(O)O)[C@H]1OP(=O)(O)O [Ins(1,3,4,5,6)P5] |  |  |  | activation of substrate-stimulated ATPase activity [3]: 2- to 3 fold |
| CCCC(=O)O[C@H]1[C@@H](OP(=O)(O)O)[C@H](OP(=O)(O)O)[C@@H](OP(=O)(O)O)[C@H](OP(=O)(O)O)[C@H]1OP(=O)(O)O [compound 5, 2-O-butanoyl-InsP5] | sharp reduction in activity |  |  |  |
| O=P(O)(O)O[C@@H]1[C@H](OCc2ccccc2)[C@H](OP(=O)(O)O)[C@@H](OP(=O)(O)O)[C@H](OP(=O)(O)OP(=O)(O)O)[C@H]1OP(=O)(O)O [compound 8, 2-O-Bn-5-PP-InsP4] |  | 2.6 | 0.5 | more effective at stimulating ATPase activity than 2-O-Bn-5-PA-IP4 (2) ([1]; 25 μM, Figure 2): 20%; rate of ligand-stimulated ATPase activity vs wild-type (in words) (PPIP5K2^KD E192G mutant): neither of these particular mutations altered the rate; rate of ligand-stimulated ATPase activity vs wild-type (in words) (PPIP5K2^KD E192Q mutant): neither of these particular mutations altered the rate |
| O=P(O)(O)O[C@@H]1[C@@H](OP(=O)(O)O)[C@H](OP(=O)(O)O)[C@H](OCc2ccccc2)[C@H](OP(=O)(O)O)[C@H]1OP(=O)(O)O [compound 7, 2-O-Bn-InsP5] | less effective than was 2-O-Bn-5-PA-InsP4; also recorded: roughly doubling the rate of ATP hydrolysis that is induced by InsP6 | 2.2 | 0.44 | less potent than 2-O-Bn-5-PA-InsP4 (2) at stimulating ATPase activity ([1]; from EC50 values, Figure 4A): 4 fold; inhibition of [PP]2-InsP4 metabolism (in words) [2]: equally efficient |
